pIC50: −log10 of the molar value. In brackets after ≈: the same amount, converted by molar mass.
What was measured:
[1] = molecular target: Vascular endothelial growth factor receptor 2 (Homo sapiens, UniProt P35968); assay: Inhibition of KDR
[2] = molecular target: T1, 3-phosphoinositide-dependent protein kinase 1 (Homo sapiens, UniProt O15530); assay: Inhibitory activity against PDK1
T1 sequence (O15530 whole entry): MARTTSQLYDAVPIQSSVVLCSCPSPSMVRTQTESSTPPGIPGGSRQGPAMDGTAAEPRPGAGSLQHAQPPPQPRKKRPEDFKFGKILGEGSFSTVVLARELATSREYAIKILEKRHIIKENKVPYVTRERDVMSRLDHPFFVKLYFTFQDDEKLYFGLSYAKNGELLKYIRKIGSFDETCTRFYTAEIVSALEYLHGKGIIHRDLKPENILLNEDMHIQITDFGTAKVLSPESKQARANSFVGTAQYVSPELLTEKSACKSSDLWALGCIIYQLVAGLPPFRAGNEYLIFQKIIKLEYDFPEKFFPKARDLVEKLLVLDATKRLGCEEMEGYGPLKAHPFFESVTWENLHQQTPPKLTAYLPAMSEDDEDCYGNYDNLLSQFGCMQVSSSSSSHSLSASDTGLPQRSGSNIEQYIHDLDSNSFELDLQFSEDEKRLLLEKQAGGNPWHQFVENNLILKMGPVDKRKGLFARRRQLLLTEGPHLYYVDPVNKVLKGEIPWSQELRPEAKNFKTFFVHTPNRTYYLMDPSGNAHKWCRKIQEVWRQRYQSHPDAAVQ

[3] = molecular target: Epidermal growth factor receptor (Homo sapiens, UniProt P00533); assay: Inhibitory activity against EGFR
[4] = Permeability by PAMPA assay; assay type: ADME; details: read-out: permeability
[5] = Solubility at pH 4.5; assay type: physicochemical; details: buffer
[6] = Stability in rat liver microsomes after 30 min; assay type: ADME, Microsome; details: read-out: Stability
[7] = Stability in nude mouse liver microsomes; assay type: ADME, Microsome
[8] = Plasma concentration in nude mouse after 4 hrs at 50 mg/kg, po; assay type: ADME, organism-based; set-up: dose 50 mg/kg, route oral
[9] = Plasma concentration in nude mouse after 8 hrs at 50 mg/kg, po; assay type: ADME, organism-based; set-up: dose 50 mg/kg, route oral
[10] = Plasma concentration in nude mouse after 24 hrs at 50 mg/kg, po; assay type: ADME, organism-based; set-up: dose 50 mg/kg, route oral
HT-29 = assay: Antitumor activity against HT29 cells xenografted in nude mouse after 21 days at 150 mg/kg, po; assay type: functional, Homo sapiens
[11] = molecular target: Proto-oncogene tyrosine-protein kinase Src (Homo sapiens, UniProt P12931); assay: Inhibition of Src
[12] = molecular target: Cyclin-dependent kinase 4 (Homo sapiens, UniProt P11802); assay: Inhibition of CDK4
[13] = molecular target: RAC-alpha serine/threonine-protein kinase (Homo sapiens, UniProt P31749); assay: Inhibition of AKT
Mus musculus = assay: Toxicity in nude mouse at 150 mg/kg, po; assay type: organism-based; set-up: dose 150 mg/kg, route oral; details: in vivo

Epidermal growth factor receptor, sequence (P00533 whole entry): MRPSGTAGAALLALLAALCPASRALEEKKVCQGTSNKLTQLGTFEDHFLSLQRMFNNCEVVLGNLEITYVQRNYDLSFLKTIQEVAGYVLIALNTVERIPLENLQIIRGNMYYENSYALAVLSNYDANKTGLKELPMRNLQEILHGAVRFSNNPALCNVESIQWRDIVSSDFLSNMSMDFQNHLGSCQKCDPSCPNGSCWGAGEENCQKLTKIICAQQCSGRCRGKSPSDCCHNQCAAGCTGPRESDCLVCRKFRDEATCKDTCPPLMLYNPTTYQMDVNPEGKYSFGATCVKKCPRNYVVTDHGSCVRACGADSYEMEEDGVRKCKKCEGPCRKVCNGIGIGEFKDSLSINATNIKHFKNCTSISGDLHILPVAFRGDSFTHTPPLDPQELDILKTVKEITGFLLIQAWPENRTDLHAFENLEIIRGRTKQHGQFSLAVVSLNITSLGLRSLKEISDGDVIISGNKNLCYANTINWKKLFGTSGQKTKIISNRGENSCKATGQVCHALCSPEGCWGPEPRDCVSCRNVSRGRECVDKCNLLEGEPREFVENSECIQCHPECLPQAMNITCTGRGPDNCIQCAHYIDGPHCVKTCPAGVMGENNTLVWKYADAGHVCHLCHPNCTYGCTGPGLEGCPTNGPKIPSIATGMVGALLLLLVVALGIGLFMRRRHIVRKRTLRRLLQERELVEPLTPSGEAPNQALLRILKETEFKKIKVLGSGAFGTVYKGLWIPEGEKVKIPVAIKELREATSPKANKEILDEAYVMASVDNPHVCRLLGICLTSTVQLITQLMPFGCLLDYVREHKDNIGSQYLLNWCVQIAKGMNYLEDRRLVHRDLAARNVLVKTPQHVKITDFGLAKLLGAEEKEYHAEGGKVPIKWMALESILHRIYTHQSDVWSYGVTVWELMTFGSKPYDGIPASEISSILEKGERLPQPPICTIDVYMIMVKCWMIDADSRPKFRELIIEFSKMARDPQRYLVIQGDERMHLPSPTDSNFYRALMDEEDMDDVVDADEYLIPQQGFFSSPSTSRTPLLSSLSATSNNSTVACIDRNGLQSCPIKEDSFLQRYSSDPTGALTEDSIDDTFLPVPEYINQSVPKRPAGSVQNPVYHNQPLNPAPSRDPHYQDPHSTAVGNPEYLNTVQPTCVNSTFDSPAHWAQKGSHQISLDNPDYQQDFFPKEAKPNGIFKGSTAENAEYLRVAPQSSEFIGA
Vascular endothelial growth factor receptor 2, sequence (P35968 whole entry): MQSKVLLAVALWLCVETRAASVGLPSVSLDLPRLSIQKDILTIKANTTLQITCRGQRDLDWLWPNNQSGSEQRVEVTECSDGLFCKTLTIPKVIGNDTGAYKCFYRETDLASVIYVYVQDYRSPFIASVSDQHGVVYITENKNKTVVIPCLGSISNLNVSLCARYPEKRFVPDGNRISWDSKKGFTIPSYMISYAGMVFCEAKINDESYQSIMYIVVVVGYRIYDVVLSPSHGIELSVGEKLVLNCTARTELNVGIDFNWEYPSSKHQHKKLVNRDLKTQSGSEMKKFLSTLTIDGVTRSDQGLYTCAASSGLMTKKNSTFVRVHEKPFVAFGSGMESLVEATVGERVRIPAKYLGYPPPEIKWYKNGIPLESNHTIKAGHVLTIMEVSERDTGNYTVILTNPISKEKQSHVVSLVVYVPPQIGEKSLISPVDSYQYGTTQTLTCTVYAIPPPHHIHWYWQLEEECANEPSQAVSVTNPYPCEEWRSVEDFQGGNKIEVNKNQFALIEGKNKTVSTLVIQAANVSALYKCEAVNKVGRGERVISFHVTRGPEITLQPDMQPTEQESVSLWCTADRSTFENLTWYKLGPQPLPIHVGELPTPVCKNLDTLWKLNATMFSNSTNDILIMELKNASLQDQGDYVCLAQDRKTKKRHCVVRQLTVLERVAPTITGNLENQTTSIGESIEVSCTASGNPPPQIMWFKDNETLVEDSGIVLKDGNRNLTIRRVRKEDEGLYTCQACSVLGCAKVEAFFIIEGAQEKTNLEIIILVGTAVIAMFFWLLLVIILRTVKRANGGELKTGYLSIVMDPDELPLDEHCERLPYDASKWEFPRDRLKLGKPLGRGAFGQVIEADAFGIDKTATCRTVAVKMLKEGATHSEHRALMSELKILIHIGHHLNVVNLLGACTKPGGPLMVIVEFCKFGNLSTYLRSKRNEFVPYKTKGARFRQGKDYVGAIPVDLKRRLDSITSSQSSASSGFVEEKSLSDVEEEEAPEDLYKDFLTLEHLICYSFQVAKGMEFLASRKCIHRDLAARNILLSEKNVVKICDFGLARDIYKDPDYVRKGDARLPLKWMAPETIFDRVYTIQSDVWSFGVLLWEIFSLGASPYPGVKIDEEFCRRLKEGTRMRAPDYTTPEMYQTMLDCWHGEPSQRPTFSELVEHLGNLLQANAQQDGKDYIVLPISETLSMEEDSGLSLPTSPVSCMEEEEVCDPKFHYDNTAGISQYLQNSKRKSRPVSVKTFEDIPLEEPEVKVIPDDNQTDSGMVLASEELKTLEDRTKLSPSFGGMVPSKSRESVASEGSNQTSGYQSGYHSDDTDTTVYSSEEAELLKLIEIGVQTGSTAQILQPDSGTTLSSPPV
RAC-alpha serine/threonine-protein kinase, sequence (P31749 whole entry): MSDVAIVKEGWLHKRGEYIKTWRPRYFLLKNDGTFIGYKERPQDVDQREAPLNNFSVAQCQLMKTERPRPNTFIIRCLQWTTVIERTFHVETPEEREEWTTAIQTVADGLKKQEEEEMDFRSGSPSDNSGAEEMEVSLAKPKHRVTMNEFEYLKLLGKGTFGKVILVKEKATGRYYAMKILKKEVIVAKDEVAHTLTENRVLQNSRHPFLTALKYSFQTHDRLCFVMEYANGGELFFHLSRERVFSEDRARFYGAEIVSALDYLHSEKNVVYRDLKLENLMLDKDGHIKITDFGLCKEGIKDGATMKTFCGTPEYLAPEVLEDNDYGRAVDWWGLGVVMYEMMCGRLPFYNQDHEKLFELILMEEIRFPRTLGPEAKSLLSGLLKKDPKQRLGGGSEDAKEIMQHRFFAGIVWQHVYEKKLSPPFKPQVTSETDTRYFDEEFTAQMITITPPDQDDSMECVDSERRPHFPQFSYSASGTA
Cyclin-dependent kinase 4, sequence (P11802 whole entry): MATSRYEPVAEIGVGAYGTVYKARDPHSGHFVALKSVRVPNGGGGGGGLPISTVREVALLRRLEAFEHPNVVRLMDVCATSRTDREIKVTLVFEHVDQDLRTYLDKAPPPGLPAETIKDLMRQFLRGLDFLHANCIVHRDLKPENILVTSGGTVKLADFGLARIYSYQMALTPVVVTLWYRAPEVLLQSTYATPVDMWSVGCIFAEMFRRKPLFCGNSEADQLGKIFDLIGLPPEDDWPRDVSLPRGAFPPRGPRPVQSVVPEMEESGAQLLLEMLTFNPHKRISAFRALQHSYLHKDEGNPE
Proto-oncogene tyrosine-protein kinase Src, sequence (P12931 2-536 limits assumed): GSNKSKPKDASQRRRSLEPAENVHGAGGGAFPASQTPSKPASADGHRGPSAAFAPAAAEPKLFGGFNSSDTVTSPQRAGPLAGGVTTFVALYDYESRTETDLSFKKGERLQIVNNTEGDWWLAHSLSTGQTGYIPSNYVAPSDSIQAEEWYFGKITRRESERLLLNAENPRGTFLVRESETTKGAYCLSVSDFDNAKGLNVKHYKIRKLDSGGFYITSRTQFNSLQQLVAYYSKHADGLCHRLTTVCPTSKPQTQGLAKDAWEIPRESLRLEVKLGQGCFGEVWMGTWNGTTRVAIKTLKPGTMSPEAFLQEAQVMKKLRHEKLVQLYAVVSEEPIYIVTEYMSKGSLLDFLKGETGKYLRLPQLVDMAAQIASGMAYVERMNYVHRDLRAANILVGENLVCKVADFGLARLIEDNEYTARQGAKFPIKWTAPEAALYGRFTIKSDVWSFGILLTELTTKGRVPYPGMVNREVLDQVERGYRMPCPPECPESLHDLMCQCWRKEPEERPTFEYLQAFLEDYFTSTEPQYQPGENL

- pIC50 [1]: < 6.00
- pIC50 [2]: < 6.00
- pIC50 [3]: 6.64
- Papp [4]: 2 ×10⁻⁶ cm/s
- solubility [5]: 63 µg/mL (≈ 114 µM)
- remaining at 0.5 h [6]: 72%
- half-life [7]: 32 min
- concentration at 4 h [8]: 1140 ng/mL
- concentration at 8 h [9]: 1030 ng/mL
- concentration at 24 h [10]: 103 ng/mL
- pIC50 [11]: 9.11
- pIC50 [12]: < 6.00
- pIC50 [13]: < 6.00
SMILES: COc1cc(Nc2c(C#N)cnc3cc(-c4coc(CN5CCN(C)CC5)c4)c(OC)cc23)c(Cl)cc1Cl
- Activity (HT-29): 38%
- Activity (Mus musculus): Non-toxic

Source: ChEMBL document CHEMBL1138859, “Synthesis and Src kinase inhibitory activity of a series of 4-[(2,4-dichloro-5-methoxyphenyl)amino]-7-furyl-3-quinolinecarbonitriles” (J Med Chem, 2006)
